Assays:
HeLa cells [1] = assay: Proliferation assay, HeLa; type: cell-based, human
Experimental: (§1) Proliferation assays. For each condition, cells were seeded in triplicate into 6-well plates at 50,000 cells/well. Compounds were added at the indicated concentrations. At 24-hour intervals, 3 wells were harvested per condition. Cell counting was performed using a TC10 automated cell counter (Bio-Rad). Results are from 3 independent experiments.

panel of 19 cell lines = assay: Proliferation after centrosome depletion, panel of cell lines; type: cell-based; conditions: panel of 19 cell lines (Table 6)
Experimental: as §1

FLT4/VEGFR3 = FLT4/VEGFR3 (Homo sapiens, UniProt P35916); assay: Radiometric kinase assay, off-target FLT4/VEGFR3; type: biochemical; conditions: off-target from DiscoveRx kinome profiling
Experimental: (§2) Aurora B and other radiometric kinase assays were performed by Reaction Biology (Malvern, Pa.). Kinome profiling of centrinone and centrinone-B was performed by DiscoveRx (San Diego, Calif.).

LRRK2 = molecular target: T1, LRRK2 (Homo sapiens, UniProt Q5S007); assay: Radiometric kinase assay, off-target LRRK2; type: biochemical; conditions: off-target from DiscoveRx kinome profiling
T1 construct: Reaction Biology (Malvern, Pa.), contract assay
Experimental: as §2

Plk4 = Plk4 intensity at centrosomes, HeLa; type: cell-based, human; conditions: 125 nM, 8 hours
Source text: FIGS. 13A-13D. Centriole number set points arise from a dynamic equilibrium between centriole overduplication and removal of cells with extra centrioles. […] Yellow arrowheads mark centrin foci. Each frame was acquired at NEBD when the centrosomes are optimally distributed for counting. Times in the bottom left of each panel are in minutes relative to NEBD in the mother cell. Scale bar, 10 μm. (FIG. 13B) Histogram of mitotic outcomes for HeLa cells with <2, 2 or >2 centrosomes. The fates of daughter cells arising from 2-centrosome bipolar mitosis, multi-centrosome bipolar mitosis, and multi-centrosome multipolar mitosis are shown below. Data are mean+/−SD (N=2). […] Intervals are based on the time of NEBD in the mother cells. The diagonal line represents the 2:1 ratio expected under normal conditions; points above or below this line correspond to over- or under-duplication, respectively. […] Boxed regions are magnified 2.3× in panels below. Scale bar, […]. The Plk4 intensity at centrosomes was quantified and normalized to the intensity in untreated cells. Data are mean+/−SD (N=3).

HeLa cells [2] = assay: Quantification of centrosome numbers from fixed samples, HeLa; type: cell-based, human; conditions: for foci of centriolar and pericentriolar material markers: centrinone treatment
Experimental: Quantification of centrosome numbers from fixed samples. Cells were seeded onto poly-D-lysine-coated coverslips (Neuvitro) in 12-well plates at least 8 hours before fixation. At the required timepoints for each experiment, cells were washed once with PBS and fixed in 100% methanol (−20° C., 5 minutes). Fixed cells were washed with PBS, blocked with PBS+4% BSA+0.1% Triton X-100, and stained with primary antibodies against γ-tubulin and Cep192, which localize to the pericentriolar material and proximal to the outer centriole wall, respectively (47, 48). Alexa488-labeled anti-mouse secondary antibody (against anti-γ-tubulin) and Alexa647-labeled anti-rabbit secondary antibody (against anti-Cep192) were both used at 1.5 jag/mL. Samples were mounted onto slides with Prolong Gold antifade reagent (Life Technologies). Images of fixed interphase cells were acquired on a Nikon Eclipse E800 with a 60×1.4 NA PlanApo objective and ORCA-ER camera (Hamamatsu) using Metamorph software (Molecular Devices). Quantification of foci was performed manually. A focus was defined as a bona-fide centrosome if it was positive for both γ-tubulin and Cep192 (true for >95% of foci).

ROS/ROS1 = ROS/ROS1 (Homo sapiens, UniProt P08922); assay: Radiometric kinase assay, off-target ROS/ROS1; type: biochemical; conditions: off-target from DiscoveRx kinome profiling
Experimental: as §2

RPE1 cells = assay: Analysis of mitosis and daughter cell fate, RPE1; type: cell-based, human
Experimental: Analysis of mitosis and daughter cell fate. […] Cells were seeded into 96-well cycloolefin plates at 5000 cells/well, 8-10 hours before imaging. Movies were acquired on the CV1000 with a 40×0.95 NA U-PlanApo objective. The imaging chamber was maintained at 37° C. and 5% CO2. Image acquisition and data analysis were performed using CellVoyager software. 20 fields/well were imaged. For HeLa and NIH/3T3 cells, 5×2 μm z-sections in the GFP (25% power, 125 ms, 30% gain) and RFP (25% power, 100 ms, 30% gain) channels were captured in each field, at 5-minute intervals for 24 hours. For RPE1 cells, 5×2 μm z-sections in the GFP (20% power, 100 ms, 30% gain) and RFP (25% power, 100 ms, 30% gain) channels were captured in each field, at 5-minute intervals for 8 hours. To track RPE1 daughter cell fate, imaging was then switched to 3×4 μm z-sections in the RFP channel only, at 10-minute intervals for 48 hours. Mitosis was measured from nuclear envelope breakdown to anaphase onset (or arrest). Results represent combined measurements of 100 mother cells per condition from 2-4 independent experiments.
To study the correlation between mother cell prometaphase duration and daughter cell fate, RPE1 cells co-expressing centrin-GFP and H2B-RFP were seeded into 96-well cycloolefin plates at 5000 cells/well, 8-10 hours before imaging. Cells were treated with 80 nM nocodazole and immediately imaged on the CV1000 system with a 40×0.95 NA U-PlanApo objective. The imaging chamber was maintained at 37° C. and 5% CO2. 20 fields/well were imaged. 5×2 Lm z-sections in the GFP (20% power, 100 ms, 30% gain) and RFP (25% power, 100 ms, 30% gain) channels were captured in each field, at 5-minute intervals for 6 hours. The plate was then removed from the microscope, and wells were washed 6 times with warm medium. The plate was returned to the microscope, and imaging was resumed, capturing 3×4 Lm z-sections in the RFP channel only, at 10-minute intervals for 50 hours. To study the effect of chromosome missegregation on daughter cell fate, cells were treated with 1 LM NMS-P715 to inhibit the spindle assembly checkpoint kinase Mps1, then imaged as described above. Only mitotic events with clear missegregation (lagging chromosomes and subsequent formation of daughter cells with micronuclei) were analyzed. For both experiments, results represent combined measurements of 100 mother cells from 2 independent experiments.

T1 sequence (Q5S007 whole entry): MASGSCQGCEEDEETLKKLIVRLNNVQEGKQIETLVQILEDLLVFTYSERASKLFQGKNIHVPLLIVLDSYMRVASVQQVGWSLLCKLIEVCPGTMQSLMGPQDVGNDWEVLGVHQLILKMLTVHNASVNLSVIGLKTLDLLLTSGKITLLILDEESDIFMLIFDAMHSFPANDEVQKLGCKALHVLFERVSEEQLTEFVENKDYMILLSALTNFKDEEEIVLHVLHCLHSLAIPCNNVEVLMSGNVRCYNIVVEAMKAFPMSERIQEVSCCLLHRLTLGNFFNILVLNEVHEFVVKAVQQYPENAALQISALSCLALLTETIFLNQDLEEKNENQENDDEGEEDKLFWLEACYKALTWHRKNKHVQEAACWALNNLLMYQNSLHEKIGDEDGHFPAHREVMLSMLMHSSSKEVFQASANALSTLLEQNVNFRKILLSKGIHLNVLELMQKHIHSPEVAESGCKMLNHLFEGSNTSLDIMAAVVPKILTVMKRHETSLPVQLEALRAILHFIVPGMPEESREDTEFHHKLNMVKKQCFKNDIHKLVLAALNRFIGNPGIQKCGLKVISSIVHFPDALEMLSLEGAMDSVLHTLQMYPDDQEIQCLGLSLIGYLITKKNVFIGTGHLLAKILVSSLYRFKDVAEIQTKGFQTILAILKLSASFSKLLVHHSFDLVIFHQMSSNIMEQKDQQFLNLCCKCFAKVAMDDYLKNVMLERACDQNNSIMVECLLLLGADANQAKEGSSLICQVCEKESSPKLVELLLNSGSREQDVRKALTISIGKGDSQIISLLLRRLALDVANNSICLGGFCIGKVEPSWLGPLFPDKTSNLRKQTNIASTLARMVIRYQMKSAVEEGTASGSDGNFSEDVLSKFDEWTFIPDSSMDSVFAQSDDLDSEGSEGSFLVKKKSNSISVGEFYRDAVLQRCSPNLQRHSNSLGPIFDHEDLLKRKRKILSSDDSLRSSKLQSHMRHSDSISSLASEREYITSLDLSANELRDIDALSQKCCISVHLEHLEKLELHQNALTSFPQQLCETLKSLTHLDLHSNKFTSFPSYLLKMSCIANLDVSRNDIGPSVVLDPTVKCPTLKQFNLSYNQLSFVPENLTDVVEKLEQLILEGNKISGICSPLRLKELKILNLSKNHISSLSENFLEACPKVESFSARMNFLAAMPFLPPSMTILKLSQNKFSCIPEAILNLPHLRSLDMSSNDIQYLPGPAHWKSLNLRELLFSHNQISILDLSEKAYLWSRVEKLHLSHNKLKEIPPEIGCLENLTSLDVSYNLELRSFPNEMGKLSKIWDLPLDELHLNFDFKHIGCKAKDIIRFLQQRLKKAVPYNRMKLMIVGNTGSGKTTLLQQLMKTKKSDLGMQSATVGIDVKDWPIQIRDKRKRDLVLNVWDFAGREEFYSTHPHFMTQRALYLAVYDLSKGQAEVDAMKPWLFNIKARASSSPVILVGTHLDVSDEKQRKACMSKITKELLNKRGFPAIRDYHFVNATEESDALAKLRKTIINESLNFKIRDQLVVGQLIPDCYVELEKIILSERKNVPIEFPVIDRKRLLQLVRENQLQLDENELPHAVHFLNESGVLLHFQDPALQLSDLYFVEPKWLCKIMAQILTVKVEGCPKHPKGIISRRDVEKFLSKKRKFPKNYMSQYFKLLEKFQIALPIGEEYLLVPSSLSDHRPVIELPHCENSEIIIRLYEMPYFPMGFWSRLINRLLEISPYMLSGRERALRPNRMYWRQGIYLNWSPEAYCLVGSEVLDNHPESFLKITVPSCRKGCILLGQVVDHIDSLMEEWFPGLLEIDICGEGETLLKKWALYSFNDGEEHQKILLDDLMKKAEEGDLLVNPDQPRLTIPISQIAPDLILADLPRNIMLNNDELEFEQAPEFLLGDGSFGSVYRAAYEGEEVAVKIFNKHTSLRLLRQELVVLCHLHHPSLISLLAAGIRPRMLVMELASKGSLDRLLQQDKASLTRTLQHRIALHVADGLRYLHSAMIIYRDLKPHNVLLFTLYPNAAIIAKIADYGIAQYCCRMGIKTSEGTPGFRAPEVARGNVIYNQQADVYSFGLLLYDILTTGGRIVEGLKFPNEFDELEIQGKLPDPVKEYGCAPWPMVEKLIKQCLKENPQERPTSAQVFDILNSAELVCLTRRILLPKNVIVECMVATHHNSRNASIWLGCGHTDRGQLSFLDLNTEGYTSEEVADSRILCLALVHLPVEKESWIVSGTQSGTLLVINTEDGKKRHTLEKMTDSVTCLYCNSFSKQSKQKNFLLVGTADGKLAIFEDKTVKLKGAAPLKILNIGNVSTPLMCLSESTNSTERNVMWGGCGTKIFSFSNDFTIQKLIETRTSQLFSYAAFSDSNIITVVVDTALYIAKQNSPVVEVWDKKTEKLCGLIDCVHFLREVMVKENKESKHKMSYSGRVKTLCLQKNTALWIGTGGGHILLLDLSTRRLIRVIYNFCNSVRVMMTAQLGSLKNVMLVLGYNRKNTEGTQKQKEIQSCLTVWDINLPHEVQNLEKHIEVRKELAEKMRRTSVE
ROS/ROS1, sequence (P08922 28-2347): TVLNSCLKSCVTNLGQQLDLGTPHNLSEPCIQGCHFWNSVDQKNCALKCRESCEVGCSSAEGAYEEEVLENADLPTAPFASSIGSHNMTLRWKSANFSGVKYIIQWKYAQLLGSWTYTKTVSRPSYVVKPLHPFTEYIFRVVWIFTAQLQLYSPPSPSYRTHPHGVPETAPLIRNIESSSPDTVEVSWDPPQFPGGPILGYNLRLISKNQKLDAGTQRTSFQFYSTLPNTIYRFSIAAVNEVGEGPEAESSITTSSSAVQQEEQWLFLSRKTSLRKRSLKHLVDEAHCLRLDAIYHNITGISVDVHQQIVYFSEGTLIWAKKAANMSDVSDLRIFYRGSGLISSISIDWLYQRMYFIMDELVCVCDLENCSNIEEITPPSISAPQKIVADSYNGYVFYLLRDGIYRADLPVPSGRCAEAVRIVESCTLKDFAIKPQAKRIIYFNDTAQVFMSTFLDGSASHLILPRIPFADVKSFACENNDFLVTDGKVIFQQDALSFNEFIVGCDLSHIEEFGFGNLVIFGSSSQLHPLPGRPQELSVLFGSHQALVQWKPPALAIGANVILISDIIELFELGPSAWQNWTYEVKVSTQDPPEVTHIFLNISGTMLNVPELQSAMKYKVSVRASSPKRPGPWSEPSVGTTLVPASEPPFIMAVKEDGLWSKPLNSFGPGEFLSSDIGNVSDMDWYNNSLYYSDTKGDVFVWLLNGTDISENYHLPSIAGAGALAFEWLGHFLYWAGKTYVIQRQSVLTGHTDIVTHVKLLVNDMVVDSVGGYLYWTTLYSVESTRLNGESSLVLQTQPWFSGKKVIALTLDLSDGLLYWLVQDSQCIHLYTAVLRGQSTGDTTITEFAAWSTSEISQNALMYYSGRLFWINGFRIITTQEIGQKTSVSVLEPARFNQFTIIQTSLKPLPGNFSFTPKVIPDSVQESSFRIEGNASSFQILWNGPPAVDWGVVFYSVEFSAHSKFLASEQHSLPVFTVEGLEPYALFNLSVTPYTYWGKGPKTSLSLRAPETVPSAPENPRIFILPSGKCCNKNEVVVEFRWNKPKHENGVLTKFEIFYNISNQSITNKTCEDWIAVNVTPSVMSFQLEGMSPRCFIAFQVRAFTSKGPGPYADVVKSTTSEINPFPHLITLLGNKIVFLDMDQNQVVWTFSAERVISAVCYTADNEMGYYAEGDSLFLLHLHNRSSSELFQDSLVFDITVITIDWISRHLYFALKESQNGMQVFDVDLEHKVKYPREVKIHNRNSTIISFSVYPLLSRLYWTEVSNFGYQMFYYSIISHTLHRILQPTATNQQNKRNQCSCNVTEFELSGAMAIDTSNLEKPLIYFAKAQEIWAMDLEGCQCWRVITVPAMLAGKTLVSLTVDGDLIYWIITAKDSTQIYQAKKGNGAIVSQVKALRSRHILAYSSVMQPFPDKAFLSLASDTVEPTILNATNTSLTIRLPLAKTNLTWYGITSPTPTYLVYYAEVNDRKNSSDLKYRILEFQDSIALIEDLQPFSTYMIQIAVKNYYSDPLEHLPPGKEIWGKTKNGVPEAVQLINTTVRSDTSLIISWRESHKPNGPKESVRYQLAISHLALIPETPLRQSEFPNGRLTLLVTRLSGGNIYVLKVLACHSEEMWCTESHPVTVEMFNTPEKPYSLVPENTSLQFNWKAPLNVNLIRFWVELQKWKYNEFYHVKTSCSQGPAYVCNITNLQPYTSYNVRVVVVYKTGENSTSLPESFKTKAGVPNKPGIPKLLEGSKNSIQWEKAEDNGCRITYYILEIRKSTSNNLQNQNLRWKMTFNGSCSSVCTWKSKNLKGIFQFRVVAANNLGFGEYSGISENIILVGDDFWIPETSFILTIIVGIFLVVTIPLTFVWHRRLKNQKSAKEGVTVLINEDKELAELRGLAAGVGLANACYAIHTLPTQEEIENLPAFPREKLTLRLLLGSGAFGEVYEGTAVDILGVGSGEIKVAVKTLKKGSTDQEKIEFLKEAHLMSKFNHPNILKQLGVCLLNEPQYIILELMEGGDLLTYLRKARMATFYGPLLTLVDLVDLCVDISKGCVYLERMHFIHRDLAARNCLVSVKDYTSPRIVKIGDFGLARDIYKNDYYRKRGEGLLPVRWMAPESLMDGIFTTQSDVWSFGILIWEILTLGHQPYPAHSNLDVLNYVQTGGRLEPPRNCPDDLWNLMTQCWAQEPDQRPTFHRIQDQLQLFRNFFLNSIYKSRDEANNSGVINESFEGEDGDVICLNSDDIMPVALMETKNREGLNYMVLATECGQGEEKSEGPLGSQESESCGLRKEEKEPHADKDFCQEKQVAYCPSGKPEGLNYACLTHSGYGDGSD

COc1c(Nc2cc(C)[nH]n2)nc(Sc2ccc(S(=O)(=O)Cc3cccc([N+](=O)[O-])c3F)cc2F)nc1N1CCOCC1 [Centrinone, 2-((2-fluoro-4-((2-fluoro-3-nitrobenzyl)sulfonyl)phenyl)thio)-5-methoxy-N-(5-methyl-1H-pyrazol-3-yl)-6-morpholinopyrimidin-4-amine]
proliferation versus controls (HeLa cells [1]; HeLa, first two days after addition): identical to controls
cell death per generation explaining reduced proliferation rate (HeLa cells [1]; centrosome-less HeLa, theoretical curves versus measurements): 25%
proliferation after treatment (panel of 19 cell lines): continued to proliferate
Ki (FLT4/VEGFR3): 6.29 nM
Ki (LRRK2): 2.08 nM
Plk4 level at the centrosome (Plk4): double
centrosome number directly after washout from long-term treated cells (HeLa cells [2]; HeLa (also BT549, N1E-115-1)): initial wave of centrosome overduplication
centrosome numbers after washout (HeLa cells [2]; HeLa, 10 days following washout): all cells exhibited normal centrosome numbers
foci of centriolar and pericentriolar material markers (HeLa cells [2]; HeLa): loss of all markers from cells
foci of centriolar and pericentriolar material markers (HeLa cells [2]; HeLa, listed as centrinone): most cells lacked centrioles/centrosomes
Ki (ROS/ROS1): 2.77 nM
percentage of daughters not dividing within 48 hours (RPE1 cells; RPE1, FIG. 18A): 1.5%
0-centrosome progeny of pioneer 1-centrosome mothers arrested (RPE1 cells; RPE1, acute treatment): 33.0%
1-centrosome progeny of pioneer 1-centrosome mothers arrested (RPE1 cells; RPE1, acute treatment): 25.5%
progeny of pioneer 0-centrosome mothers arrested (RPE1 cells; RPE1, acute treatment): 70%

From US10752612B2, “PLK4 inhibitors” (LUDWIG INSTITUTE FOR CANCER RESEARCH LTD, priority 2015, dated 2020)
